In EP4768480A1, “ALKOXY THIOPHENE ACYL ARYLAMINE COMPOUNDS AND USE THEREOF” (priority 2024, dated 2025):

What follows are compounds tested against T1, SMS2 (Homo sapiens, UniProt Q8NHU3) (assay: SMS2 inhibitory activity in vitro, HPLC fluorescence quantitative detection (C6-NBD-ceramide to C6-NBD-SM)). Conditions: 1 µM test compound; SMS2 pure enzyme; 37°C, 30 minutes; average of two measurements; read-out: Inhibition rate on SMS2 at C/µM 1.
T1 construct: CAO, Yu research team, National Protein Scientific Center (Shanghai); supplied by an outside laboratory, not a commercial vendor
T1 sequence (Q8NHU3 1-365): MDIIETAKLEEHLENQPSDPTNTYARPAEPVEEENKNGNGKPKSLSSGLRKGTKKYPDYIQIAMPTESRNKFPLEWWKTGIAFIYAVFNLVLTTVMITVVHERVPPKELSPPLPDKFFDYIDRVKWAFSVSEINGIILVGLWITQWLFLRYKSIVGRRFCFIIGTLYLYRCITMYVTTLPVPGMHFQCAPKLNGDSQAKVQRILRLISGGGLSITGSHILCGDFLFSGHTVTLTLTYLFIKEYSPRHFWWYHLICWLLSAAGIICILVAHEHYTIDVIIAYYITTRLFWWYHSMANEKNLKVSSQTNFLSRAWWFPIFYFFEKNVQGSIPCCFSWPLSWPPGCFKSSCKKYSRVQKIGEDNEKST
Type: biochemical
Source text: • 1. Electro-thermostatic water bath, from Shanghai Yiheng Technology Co., Ltd.); • 2. Vortex Mixer, with model ID of XW-80A, from Shanghai Jingke Industrial Co., Ltd.; • 3. […] High Performance Liquid Chromatography Agilent 1100, equipped with a quaternary pump, vacuum degassing, and FLD fluorescence detector, from Agilent Technologies, Palo Alto, CA, USA; • 5. HPLC column COSMOSIL 5C18-MS-II (4.6mm I.D. X 250mm); • 6. […] The organic solvents used in the present disclosure were purchased from Shanghai National Reagent Company, wherein methanol was pure chromatography; water was ultra-pure water which is filtrated by Milli-Q pump, deionized and ultra-filtrated with 0.22 µm membrane; and other biological consumables were purchased from domestic companies; • 8. Preparation of test compound solutions: each test compound was accurately weighed and dissolved in an appropriate volume of DMSO to prepare a 10 mmol/L stock solution. The stock solution was then diluted with an appropriate volume of DMSO to achieve the desired working concentration; • 9. SMS2 pure enzyme, DDM solution and buffer solution were provided by CAO, Yu research team from National Protein Scientific Center (Shanghai).
79 µl of the diluted enzyme solution were transferred into a 1.5 mL EP tube, 1 µl of inhibitor DMSO solution were added thereto, vortexing for 15 seconds, followed by standing at room temperature for 5 minutes. 20 µl of a mixed solution of DMPC and C6-NBD-ceramide were added, vortexing for 15 seconds, and incubated at 37°C for 30 minutes. 200 µl of anhydrous ethanol were added to quench the reaction, vortexing for 15 seconds. 200 µl of the reaction solution were taken out and stored at 4°C and avoided light for HPLC detection.
The peak area values of A(sm) and A(ceramide) in the HPLC chromatogram corresponding to C6-NBD-SM and C6-NBD-Ceramide in the DMSO group and inhibitor group samples were analyzed and recorded, and the inhibition rate of the test compound was calculated according to the following formula. Inhibition rate = (Peak area values of DMSO group−Peak area values of Inhibitor group)/(Peak area values of DMSO group) × 100% [formula]

Question: How did the inhibition at 1 µM turn out when `CCCCCCCOc1cc(Cl)ccc1COc1ccsc1C(=O)Nc1cccnc1` [1-72, 3-(4-chloro-2-(heptyloxy)benzyloxy)-N-(pyridin-3-yl)thiophene-2-carboxamide] was run?
Answer: The inhibition at 1 µM was 90%.

Question: For `O=C(Nc1cc(Cl)cc(Cl)n1)c1sccc1OCc1ccccc1` [1-20, 3-benzyloxy-N-(4,6-Dichloropyridin-2-yl)thiophene-2-carboxamide], which inhibition at 1 µM is on record?
Answer: The inhibition at 1 µM was 50%.

Question: How did the inhibition at 1 µM turn out when `O=C(Nc1cccnc1)c1sccc1OCc1c(F)c(F)cc(F)c1F` [1-67, 3-(2,3,5,6-tetrafluorobenzyloxy)-N-(pyridin-3-yl)thiophene-2-carboxamide] was run?
Answer: Its inhibition at 1 µM is 67%.

Question: For `Cc1cccc(C)c1COc1ccsc1C(=O)Nc1cccnc1` [1-60, 3-(2,6-dimethylbenzyloxy)-N-(pyridin-3-yl)thiophene-2-carboxamide], which inhibition at 1 µM is on record?
Answer: The inhibition at 1 µM was 78%.

Question: With `O=C(Nc1cncc(F)c1)c1sccc1OCc1ccccc1` [1-92, 3-benzyloxy-N-(5-fluoropyridin-3-yl)thiophene-2-carboxamide] as the compound, how does the inhibition at 1 µM read?
Answer: Its inhibition at 1 µM is 50%.

Question: For `Cc1nc(OCc2ccccc2)c(C(=O)Nc2cccnc2)s1` [12-9, 4-(benzyloxy)-2-methyl-N-(pyridin-3-yl)thiazole-5-carboxamide], which inhibition at 1 µM is on record?
Answer: Its inhibition at 1 µM is -2%.

Question: Which inhibition at 1 µM does the source give for `O=C(Nc1ccncc1)c1sccc1OCc1ccccc1` [12-11] here?
Answer: The inhibition at 1 µM was 7%.

Question: With `O=C(Nc1cccnc1)c1sccc1OCc1cc(OP(=O)(O)O)ccc1Cl` [1-26] as the compound, how does the inhibition at 1 µM read?
Answer: The inhibition at 1 µM was 13%.

Question: For `O=C(Nc1cccnc1)c1sccc1OCc1ccccc1I` [1-87, 3-(yloxy)-N-(pyridin-3-yl)thiophene-2-carboxamide], which inhibition at 1 µM is on record?
Answer: The inhibition at 1 µM was 82%.

Question: Which inhibition at 1 µM does the source give for `O=C(Nc1cccnc1)c1sccc1OCc1cccc2cccnc12` [1-12, N-(pyridin-3-yl)-3-(quinolin-8-ylmethoxy)thiophene-2-carboxamide] here?
Answer: Its inhibition at 1 µM is 68%.

Question: How did the inhibition at 1 µM turn out when `CCOC(=O)c1ccccc1COc1ccsc1C(=O)Nc1cccnc1` [1-84] was run?
Answer: The inhibition at 1 µM was 63%.

Question: With `COc1cccc(Cl)c1COc1ccsc1C(=O)Nc1cccnc1` [1-63, 3-(2-chloro-6-methoxybenzyloxy)-N-(pyridin-3-yl)thiophene-2-carboxamide] as the compound, how does the inhibition at 1 µM read?
Answer: The inhibition at 1 µM was 80%.

Question: With `O=C(Nc1cccnc1)c1sccc1OCc1cccc(F)c1` [1-45, 3-(3-fluorobenzyloxy)-N-(pyridin-3-yl)thiophene-2-carboxamide] as the compound, how does the inhibition at 1 µM read?
Answer: Its inhibition at 1 µM is 67%.

Question: How did the inhibition at 1 µM turn out when `COc1cccc(COc2ccsc2C(=O)Nc2cccnc2)c1` [1-58, 3-(3-methoxybenzyloxy)-N-(pyridin-3-yl)thiophene-2-carboxamide] was run?
Answer: Its inhibition at 1 µM is 70%.

Question: For `Cc1ccc(F)cc1COc1ccsc1C(=O)Nc1cccnc1` [1-88, 3-(5-fluoro-2-methylbenzyloxy)-N-(pyridin-3-yl)thiophene-2-carboxamide], which inhibition at 1 µM is on record?
Answer: Its inhibition at 1 µM is 76%.

Question: For `O=C(Nc1cccnc1)c1sccc1OCc1ccccc1F` [1-44, 3-(2-fluorobenzyloxy)-N-(pyridin-3-yl)thiophene-2-carboxamide], which inhibition at 1 µM is on record?
Answer: Its inhibition at 1 µM is 54%.

Question: How did the inhibition at 1 µM turn out when `Cc1ccccc1COc1ccsc1C(=O)Nc1cccnc1` [1-41, 3-(2-methylbenzyloxy)-N-(pyridin-3-yl)thiophene-2-carboxamide] was run?
Answer: Its inhibition at 1 µM is 72%.

Question: Which inhibition at 1 µM does the source give for `Cc1ccc(NC(=O)c2sccc2OCc2ccccc2)cn1` [12-12] here?
Answer: Its inhibition at 1 µM is 7%.

Question: For `O=C(Nc1cccnc1)c1sccc1OCc1cc(Cl)ccc1Cl` [1-89, 3-(2,5-dichlorobenzyloxy)-N-(pyridin-3-yl)thiophene-2-carboxamide], which inhibition at 1 µM is on record?
Answer: The inhibition at 1 µM was 74%.

Question: With `CCCCCOc1cccc(Cl)c1COc1ccsc1C(=O)Nc1cccnc1` [1-38, 3-(2-(n-pentyloxy)-6-chlorobenzyloxy)-N-(pyridin-3-yl)thiophene-2-carboxamide] as the compound, how does the inhibition at 1 µM read?
Answer: Its inhibition at 1 µM is 91%.

Question: With `O=C(Nc1ccc(F)nc1)c1sccc1OCc1ccccc1` [12-13] as the compound, how does the inhibition at 1 µM read?
Answer: The inhibition at 1 µM was 9%.

Same assay, conditions: 10 µM test compound; SMS2 pure enzyme; 37°C, 30 minutes; average of two measurements; read-out: Inhibition rate on SMS2 at C/µM 10

Question: With `O=C(Nc1cccnc1)c1sccc1OCc1ccccc1N1C(=O)c2ccccc2C1=O` [12-5, 3-(2-(1,3-dioxoisoindolin-2-yl)benzyloxy)-N-(pyridin-3-yl)thiophene-2-carboxamide] as the compound, how does the inhibition at 10 µM read?
Answer: Its inhibition at 10 µM is 4%.

Question: Which inhibition at 10 µM does the source give for `CC(C)(O)COc1ccc(F)cc1COc1ccsc1C(=O)Nc1cccnc1` [1-8, 3-(5-fluoro-2-(2-hydroxy-2-methylpropoxy)benzyloxy)-N-(pyridin-3-yl)thiophene-2-carboxamide] here?
Answer: Its inhibition at 10 µM is 56%.

Question: `O=C(O)CCCCCOc1ccccc1COc1ccsc1C(=O)Nc1cccnc1` [1-17, 6-(2-[(2-(pyridin-3-ylcarbamoyl)thiophene-3-yl)oxymethyl]phenoxy)hexanoic acid] was tested. Which inhibition at 10 µM did it give?
Answer: Its inhibition at 10 µM is 50%.

Question: For `CCCCOc1ccsc1C(=O)Nc1cccnc1` [1-95], which inhibition at 10 µM is on record?
Answer: Its inhibition at 10 µM is 50%.

Question: With `O=C(Nc1ccc(C(F)(F)F)nc1)c1sccc1OCc1ccccc1` [12-14] as the compound, how does the inhibition at 10 µM read?
Answer: Its inhibition at 10 µM is 10%.

Question: With `Cc1ncccc1NC(=O)c1sccc1OCc1ccccc1` [1-68, 3-benzyloxy-N-(2-methylpyridin-3-yl)thiophene-2-carboxamide] as the compound, how does the inhibition at 10 µM read?
Answer: Its inhibition at 10 µM is 50%.

Question: With `O=C(Nc1cccnc1)c1ccncc1OCc1ccccc1` [12-17, 3-benzyloxy-N-(pyridin-3-yl)pyridin-4-carboxamide] as the compound, how does the inhibition at 10 µM read?
Answer: Its inhibition at 10 µM is 27%.

Question: How did the inhibition at 10 µM turn out when `O=C(Nc1cccnc1)c1cnccc1OCc1ccccc1` [12-16, 4-benzyloxy-N-(pyridin-3-yl)pyridin-3-carboxamide] was run?
Answer: Its inhibition at 10 µM is 17%.

Question: `O=C(Nc1cccnc1)c1sccc1OCc1c(Cl)cccc1Cl` [1-3, 3-(2,6-dichlorobenzyloxy)-N-(pyridin-3-yl)thiophene-2-carboxamide] was tested. Which inhibition at 10 µM did it give?
Answer: The inhibition at 10 µM was 97%.

Question: With `O=C(Nc1cccnc1)c1sccc1OCc1ccc(OC(F)(F)F)cc1` [1-54, 3-(4-(trifluoromethoxy)benzyloxy)-N-(pyridin-3-yl)thiophene-2-carboxamide] as the compound, how does the inhibition at 10 µM read?
Answer: Its inhibition at 10 µM is 57%.

Question: For `O=C(Nc1cccnc1)c1sccc1OCc1cccc(OC(F)(F)F)c1` [1-55, 3-(3-(trifluoromethoxy)benzyloxy)-N-(pyridin-3-yl)thiophene-2-carboxamide], which inhibition at 10 µM is on record?
Answer: Its inhibition at 10 µM is 65%.

Question: How did the inhibition at 10 µM turn out when `O=C(Nc1cccnc1)c1nccnc1OCc1ccccc1` [12-20] was run?
Answer: The inhibition at 10 µM was 16%.

Question: For `O=C(Nc1cccnc1)c1sccc1OCc1ccc(F)cc1` [1-46, 3-(4-fluorobenzyloxy)-N-(pyridin-3-yl)thiophene-2-carboxamide], which inhibition at 10 µM is on record?
Answer: The inhibition at 10 µM was 70%.

Question: For `N#Cc1cccc(COc2ccsc2C(=O)Nc2cccnc2)c1` [1-51, 3-(3-cyanobenzyloxy)-N-(pyridin-3-yl)thiophene-2-carboxamide], which inhibition at 10 µM is on record?
Answer: The inhibition at 10 µM was 60%.

Question: How did the inhibition at 10 µM turn out when `O=C(Nc1ccccc1)c1sccc1OCc1ccccc1` [1-7, 3-benzyloxy-N-phenylthiophen-2-carboxamide] was run?
Answer: The inhibition at 10 µM was 50%.

Question: Which inhibition at 10 µM does the source give for `Cc1ccc(NC(=O)Cc2ccccc2COc2ccsc2C(=O)Nc2cccnc2)nc1` [12-8, 3-(2-(2-((5-methylpyridin-2-yl)amino)-2-oxoethyl)benzyloxy)-N-(pyridin-3-yl) thiophene-2-carboxamide] here?
Answer: Its inhibition at 10 µM is 7%.

Question: With `O=C(Nc1cccc(O)n1)c1sccc1OCc1ccccc1` [1-9, 3-benzyloxy-N-(6-hydroxypyridine-2-yl)thiophene-2-carboxamide] as the compound, how does the inhibition at 10 µM read?
Answer: Its inhibition at 10 µM is 50%.

Question: With `O=C(Nc1cccnc1)c1sccc1OCc1cccc2c1Oc1c(F)c(F)c(F)c(F)c1O2` [1-19, N-(pyridin-3-yl)-3-[(6,7,8,9-tetrafluorodibenzo[b,e][1,4]dioxin-1-yl)methoxy]thiophene-2-carboxamide] as the compound, how does the inhibition at 10 µM read?
Answer: Its inhibition at 10 µM is 77%.

Question: How did the inhibition at 10 µM turn out when `CN(C(=O)c1sccc1OCc1ccccc1)c1cccnc1` [1-62, 3-benzyloxy-N-methyl-(pyridin-3-yl)thiophene-2-carboxamide] was run?
Answer: Its inhibition at 10 µM is 57%.

Question: How did the inhibition at 10 µM turn out when `CCCOc1ccc(OCCC)c(COc2ccsc2C(=O)Nc2cccnc2)c1` [1-93, 3-(2,5-dipropoxybenzyloxy)-N-(pyridin-3-yl)thiophene-2-carboxamide] was run?
Answer: Its inhibition at 10 µM is 50%.

Question: Which inhibition at 10 µM does the source give for `CCCCCCCCOc1ccsc1C(=O)Nc1cccnc1` [1-96, 3-octyloxy-N-(pyridin-3-yl)thiophene-2-carboxamide] here?
Answer: The inhibition at 10 µM was 50%.

Question: With `COc1ccc(COc2ccsc2C(=O)Nc2cccnc2)cc1` [1-56, 3-(4-methoxybenzyloxy)-N-(pyridin-3-yl)thiophene-2-carboxamide] as the compound, how does the inhibition at 10 µM read?
Answer: Its inhibition at 10 µM is 50%.

Question: `O=C(Nc1cccnc1)c1scc(Br)c1OCc1ccccc1` [1-15, 3-benzyloxy-4-bromo-N-(pyridin-3-yl)thiophene-2-carboxamide] was tested. Which inhibition at 10 µM did it give?
Answer: The inhibition at 10 µM was 53%.
